The values that follow come from US20230331739A1, “INDOLO HEPTAMYL OXIME ANALOG CRYSTAL AS PARP INHIBITOR AND METHOD FOR PREPARING SAME” (CHIA TAI TIANQING PHARMACEUTICAL GROUP CO., LTD., priority 2020, published 2023).

The target in one experiment is CYP2D6 (Homo sapiens (Human), UniProt P10635). As to the kind of experiment: Inhibition against cytochrome P450 isoenzymes, CYP2D6. In kind it is in vitro ADME. Particulars: human liver microsomes. The method, then: (§1) The inhibition of the test compound against different subtypes of the human cytochrome P450 isoenzyme was determined. The test compound, a standard inhibitor (100×final concentration) and a mixed substrate working solution were prepared; the microsomes frozen in a refrigerator at −80° C. were taken out and thawed. […]
Chain of CYP2D6 (P10635 whole entry): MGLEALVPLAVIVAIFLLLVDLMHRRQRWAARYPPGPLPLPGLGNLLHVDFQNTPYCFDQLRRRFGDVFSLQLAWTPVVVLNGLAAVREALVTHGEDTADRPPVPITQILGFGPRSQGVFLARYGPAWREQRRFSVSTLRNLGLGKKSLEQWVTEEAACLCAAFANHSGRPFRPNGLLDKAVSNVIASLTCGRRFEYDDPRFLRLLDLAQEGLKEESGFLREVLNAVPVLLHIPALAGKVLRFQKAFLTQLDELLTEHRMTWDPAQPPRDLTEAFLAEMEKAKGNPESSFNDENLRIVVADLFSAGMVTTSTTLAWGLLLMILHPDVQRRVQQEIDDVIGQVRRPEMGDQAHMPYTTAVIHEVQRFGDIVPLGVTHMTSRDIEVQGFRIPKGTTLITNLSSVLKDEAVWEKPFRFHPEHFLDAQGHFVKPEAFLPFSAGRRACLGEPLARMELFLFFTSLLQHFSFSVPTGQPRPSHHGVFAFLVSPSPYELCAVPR
In general terms: Microsomes from liver hold many membrane-bound enzymes, among them those of drug oxidation.

The target of the next experiment is CYP1A2 (Homo sapiens (Human), UniProt P05177). As to the kind of experiment: Inhibition against cytochrome P450 isoenzymes, CYP1A2. Particulars: human liver microsomes. In kind it is in vitro ADME. The method, then: as §1
Chain of CYP1A2 (P05177 whole entry): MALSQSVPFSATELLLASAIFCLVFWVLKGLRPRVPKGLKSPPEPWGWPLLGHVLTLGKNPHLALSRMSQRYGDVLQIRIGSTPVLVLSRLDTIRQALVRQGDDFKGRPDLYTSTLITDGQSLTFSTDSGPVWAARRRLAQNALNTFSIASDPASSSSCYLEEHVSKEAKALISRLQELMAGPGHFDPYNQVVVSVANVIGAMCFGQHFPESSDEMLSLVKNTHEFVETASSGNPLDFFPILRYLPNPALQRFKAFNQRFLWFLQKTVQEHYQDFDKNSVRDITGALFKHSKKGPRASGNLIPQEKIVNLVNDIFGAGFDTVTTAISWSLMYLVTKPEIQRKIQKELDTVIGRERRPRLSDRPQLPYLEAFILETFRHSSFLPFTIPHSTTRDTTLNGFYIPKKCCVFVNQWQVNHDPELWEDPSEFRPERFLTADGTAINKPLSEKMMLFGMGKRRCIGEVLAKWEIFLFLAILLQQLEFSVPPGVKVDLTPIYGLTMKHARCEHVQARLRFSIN
Experiment [1] has as its system MDA-MB-436 cells with BRCA1 mutation. The experiment in a line: Anti-proliferation study on MDA-MB-436 cells (CellTiter-Glo). In kind it is cell-based. Particulars: Homo sapiens, MDA-MB-436, 168 h; 7 days incubation. As to the method:
Materials: test compounds; RPMI-1640 medium; fetal bovine serum; penicillin/streptomycin antibiotic; MDA-MB-436 cells; Envision Multimode Plate Reader (PerkinElmer). MDA-MB-436 cells were seeded in a white 96-well plate by adding 80 μL of cell suspension (containing 3000 MDA-MB-436 cells) to each well. The cell plate was incubated in a CO2 incubator overnight. The test compounds were serially 5-fold diluted to the 8th concentration with a multichannel pipette, i.e., from 2 mM to 26 nM, in duplicate. 78 μL of medium was added to an intermediate plate, and the serially diluted compound was transferred to the intermediate plate at 2 μL per well. After being mixed well, the mixture was transferred to the cell plate at 20 μL per well. […] Another cell plate was provided for reading signal values on the day of compound addition and these signal values were used as Max values in data analysis. Promega CellTiter-Glo was added to the cell plate at 25 μL per well and the luminescence signals were stabilized by incubation for 10 min at room temperature. Readings were taken using a PerkinElmer Envision Multimode Plate Reader. […]
On the technique in general: ATP-based viability assays read luminescence as a measure of living cells.

For a further experiment, the target named is CYP3A4-M (Homo sapiens (Human), UniProt P08684). The experiment in a line: Inhibition against cytochrome P450 isoenzymes, CYP3A4-M. The class given is in vitro ADME. The note with it: human liver microsomes. As to the method:
as §1

For a further experiment, the target named is PARP1 (Homo sapiens (Human), UniProt P09874). The experiment in a line: PARP-1 enzymatic assay (HT Universal Chemiluminescent PARP Assay kit). In kind it is biochemical. The method, then: Materials: test compounds; HT Universal Chemiluminescent PARP Assay kit (purchased from TREVIGEN); PBS (phosphate buffer saline, purchased from Wisent); Triton X-100 (purchased from Macklin); Envision Multimode Plate Reader (PerkinElmer).
Chain of PARP1 (P09874 whole entry): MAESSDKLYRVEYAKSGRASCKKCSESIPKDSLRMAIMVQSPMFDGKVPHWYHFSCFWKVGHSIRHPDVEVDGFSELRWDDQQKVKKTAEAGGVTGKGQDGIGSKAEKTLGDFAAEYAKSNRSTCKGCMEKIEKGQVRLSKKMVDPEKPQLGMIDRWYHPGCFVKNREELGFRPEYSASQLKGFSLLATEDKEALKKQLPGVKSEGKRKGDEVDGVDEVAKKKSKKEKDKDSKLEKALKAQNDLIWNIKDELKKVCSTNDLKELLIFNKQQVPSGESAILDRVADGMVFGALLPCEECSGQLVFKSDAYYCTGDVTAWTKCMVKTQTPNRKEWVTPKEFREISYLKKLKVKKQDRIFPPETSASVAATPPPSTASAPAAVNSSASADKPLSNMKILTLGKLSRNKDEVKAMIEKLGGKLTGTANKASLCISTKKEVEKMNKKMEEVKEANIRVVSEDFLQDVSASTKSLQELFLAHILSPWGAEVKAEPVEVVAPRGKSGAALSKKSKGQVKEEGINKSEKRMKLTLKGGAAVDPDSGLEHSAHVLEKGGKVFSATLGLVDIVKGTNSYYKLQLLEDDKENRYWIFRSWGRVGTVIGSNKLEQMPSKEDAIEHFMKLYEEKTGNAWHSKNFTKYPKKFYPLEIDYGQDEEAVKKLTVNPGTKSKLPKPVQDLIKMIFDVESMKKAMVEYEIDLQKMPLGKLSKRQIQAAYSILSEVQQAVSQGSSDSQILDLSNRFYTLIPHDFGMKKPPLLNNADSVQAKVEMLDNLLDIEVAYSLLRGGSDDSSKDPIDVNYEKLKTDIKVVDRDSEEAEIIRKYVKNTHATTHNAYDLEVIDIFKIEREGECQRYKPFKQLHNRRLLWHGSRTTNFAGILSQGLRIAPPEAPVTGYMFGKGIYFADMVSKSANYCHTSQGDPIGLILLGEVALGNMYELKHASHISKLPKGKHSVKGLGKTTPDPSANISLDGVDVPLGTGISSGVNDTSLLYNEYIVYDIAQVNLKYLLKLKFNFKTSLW
1. Washing solution: Triton X-100 was added to 1×PBS with a final concentration of Triton X-100 of 0.1%.
2. 1×PARP buffer: The 20×PARP buffer in the kit was 20-fold diluted with water to prepare a 1×PARP buffer, which was used to prepare the compounds, enzyme solutions and substrate solutions.
3. 1×Strep-Diluent solution: The 10×Strep-diluent in the kit was 10-fold diluted with water to prepare a 1×Strep-diluent solution.
The test compounds were diluted from 200 μM to 2.56 nM. The DMSO concentration was 100%. 2 μL of each of the inhibitors at various concentration gradients was added to a compound intermediate plate, and 38 μL of the 1×PARP buffer was then added. The two were mixed well for use, and the DMSO concentration was 5% at this time.
a) The 1×PARP buffer was added to a test plate at 50 μL per well, and the test plate was incubated at 25° C. for 30 min. […]
PeroxyGlow A and B in the kit were mixed at a ratio of 1:1, and the mixed solution was added to the test plate at 100 μL per well. Chemiluminescence was immediately read using a PerkinElmer Envision Multimode Plate Reader with an integration time of 0.5 s. […]

Chain of CYP3A4-M (P08684 whole entry): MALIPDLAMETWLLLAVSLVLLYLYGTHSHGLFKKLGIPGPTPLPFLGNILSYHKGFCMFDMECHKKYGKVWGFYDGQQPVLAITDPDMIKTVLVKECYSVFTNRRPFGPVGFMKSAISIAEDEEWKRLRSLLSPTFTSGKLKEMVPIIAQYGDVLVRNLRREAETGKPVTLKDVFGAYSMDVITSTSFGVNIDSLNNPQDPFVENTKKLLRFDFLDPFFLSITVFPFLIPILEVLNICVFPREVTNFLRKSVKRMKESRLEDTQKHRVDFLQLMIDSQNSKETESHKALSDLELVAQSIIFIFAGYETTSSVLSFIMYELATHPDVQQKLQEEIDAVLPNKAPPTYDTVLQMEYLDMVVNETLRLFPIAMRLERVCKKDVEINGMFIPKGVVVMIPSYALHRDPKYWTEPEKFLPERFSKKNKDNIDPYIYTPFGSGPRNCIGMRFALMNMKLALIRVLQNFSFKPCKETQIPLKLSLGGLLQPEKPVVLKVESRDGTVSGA

For `C[C@]1(c2ccc(-c3[nH]c4cc(F)cc5c4c3CONC5=O)cc2)CCCN1` [Compound 1], the IC50 is 11.6 µM against CYP2D6; above 50 µM at CYP1A2; 0.0123 µM in experiment [1]; 32.9 µM at CYP3A4-M; 0.0023 µM against PARP1.

Broadly, the IC50 is the point on the concentration scale where inhibition reaches its midpoint. Higher therefore signals lower potency.
